Holding throughout (type): cell-based
One test deals with mouse spleen cells. The test is described as follows: Polyclonal antibody response assay (Ig secretion measured by ELISA). Conditions: C57BL/6 spleen cells, 5 days; equimolar amounts of polypeptide, 1.5 mg/ml of p23 as standard.
Test [1] relates to human plastic-adherent monocytes. Kind of test: Prostaglandin E secretion (radioimmune assay). Conditions: 25 ug/ml of p23 or an equimolar amount of another polypeptide, 24 hours; initial data. How it is done: (§1) The cell lines used in these studies were: (1) murine plastic-adherent macrophages; (2) human plastic-adherent monocytes; and (3) the murine macrophage-like cell line denominated P388.D1 [Snyderman et al., J. Immunol., 119, 2060 (1977)]. […] Thereafter, the cell culture supernatant was assayed for the presence of a prostaglandin E using a commercially available radioimmune assay (Seragen).

The test system of test [2] is murine macrophage-like cell line denominated P388.D1. Kind of test: Prostaglandin E secretion (radioimmune assay). Conditions: 25 ug/ml of p23 or an equimolar amount of another polypeptide, 24 hours; initial data. How it is done:
as §1

Test [3] has as its system murine plastic-adherent macrophages. Kind of test: Prostaglandin E secretion (radioimmune assay). The note with it: 25 ug/ml of p23 or an equimolar amount of another polypeptide, 24 hours; initial data. On the procedure: as §1

Ends that are not written are not given here.

From the text for mouse spleen cells: This assay measures the activity of a polypeptide in potentiating an in vitro polyclonal antibody response using mouse spleen cells.
For the generation of immunoglobulin (Ig) secretion response, spleen cells from inbred male 8-15 week old C57BL/6 mice (The Jackson Laboratory, Bar Harbor, ME) were suspended in RPMI 1640 medium (M.A. Bioproducts, Walkersville, MD) supplemented with 2 millimolar (mM) L-glutamine, one percent BME vitamins (GIBCO, Grand Island, NY), 5×10^-5 molar (M) 2-mercaptoethanol, 7.5 percent fetal calf serum (FCS;GIBCO), and 0.001 percent gentamicin (Schering Corp., Kenilworth, NJ). Cells (6×10^5) in 0.2 milliliters (ml) of the supplemented medium were added to flat-bottomed microtiter plate wells (No. 3596: Costar, Cambridge, MA). Cultures were established in triplicate, and a polypeptide-containing composition was added in a volume of 50 microliters per well (ul/well).
To establish comparison between polypeptides of different lengths, equimolar amounts of polypeptide were used, with 1.5 milligrams per milliter (mg/ml) of the 23-residue polypeptide corresponding in sequence to positions 335-357 of the human IgGl myeloma protein as standard. […] Supernatants from triplicate cell culture wells were harvested, pooled, centrifuged to remove cells and stored at -20° C. Concentrations of Ig in the supernatants were determined by the ELISA assay described hereinbelow.
The ELISA utilized to measure polyclonal activation was a so-called "sandwich" assay in which the assayed entity, mouse Ig molecules, are bound to solid phase-bound anti-mouse Ig antibodies and then bound by indicator (alkaline phosphatase)-linked anti-mouse Ig antibodies.
(B) 100 Microliters of various dilutions of either the Ig standard or culture supernatants were then admixed in PBS-Tween. […]
Each well then received 100 ul of 1 mg p-nitrophenyl phosphate (Sigma Chemical Co., St. Louis, MO) in 0.05 M carbonate, pH 9.8. The reaction was stopped with 50 ml of 0.3 N NaOH, and the light absorbance at 410 nanometers (nm) was measured by using a Dynatech model MR600 ELISA reader. […]

“LPPSREE [I-51(a), Leu-Pro-Pro-Ser-Arg-Glu-Glu]”: in the test with mouse spleen cells, the “Ig Found (amount of polyclonal Ig molecules found in the assay)” value (shortened to “Ig Found”) was 10.2 µg/mL. Besides, the “secretion of a prostaglandin E into the culture medium” value (“secretion” below) in test [1], in test [2] and in test [3] was “incapable of inducing” each time.

For the substance QVYTLPPSREE [I-51(c)], the “Ig Found” value in the test on mouse spleen cells came to 11.7 µg/mL. Also, the “secretion” value in test [1], in test [2] and in test [3] was “incapable of inducing” each time.

Turning to YTLPPSREE [I-51(b)], the “Ig Found” value in the test on mouse spleen cells was 10.7 µg/mL. The “secretion” value in test [1], in test [2] and in test [3] was “incapable of inducing” in each case.
